Reference: article PMC9546217, “Exploring novel nitrofuranyl sulfonohydrazides as anti‐Leishmania and anti‐cancer agents: Synthesis, in vitro efficacy and hit identification” (Chemical Biology & Drug Design, 2022)
Like-named read-outs stand apart in the source and are kept apart here.

Columns and labels:
[1] = test system: L. donovani strain 1S promastigotes; experiment: Antipromastigote assay (resazurin); type: cell-based; settings: L. donovani 1S, read-out: 1S IC50 ± SD, Promastigote
Method: (§1) The antipromastigote activity of synthesized compounds was evaluated as described previously by Mangwegape et al. ([2021]) using three strains of L. donovani (1S (MHOM/SD/62/1S) and 9515 (MHOM/IN/95/9515)) and L. major (IR‐173 [MHOM/IR/−173]). The assay method is available in the Supinfo S1.
(§2) The antipromastigote activity of synthesized compounds was evaluated using a modified, resazurin-based method of Kulshrestha et al. ^2 and Siqueira-Neto et al. ^3 and on three Leishmania strains. Leishmania donovani (strains 1S (MHOM/SD/62/1S) and 9515 (MHOM/IN/95/9515)) and L. major (strain IR-173 (MHOM/IR/-173)) promastigotes were cultured in M199 with Hank's salts and 0.68 mM L-glutamine (Sigma Aldrich) supplemented with 50 U/mL Penicillin/Streptomycin solution (Lonza), 4.2 mM sodium bicarbonate, 25 mM Hepes, 10% fetal bovine serum, 0.25% hemin, 0.1% biotin, and 10 mM adenine (Sigma Aldrich) and the pH adjusted to 7.3 – 7.4. The promastigotes were maintained at 25 °C.
(§3) Amphothericin B (10 μM) served as the standard drug and growth medium without parasites served as the blank. The plates were incubated for 48 hours at 25 °C in humidified atmosphere. After incubation, 50 μL of resazurin solution (0.01% in PBS) was added to each well and the plates were further incubated at 25 °C in the dark for 24 hours. Absorbance was measured at 570 nm and 600 nm using the Thermofisher Scientific GO Multiscan plate reader. Data analysis was performed for each biological replicate using SkanIt 4.0 Research Edition software. Background absorbance of resazurin (600 nm) was subtracted from the absorbance values of resorufin (570 nm). The mean absorbance calculated and the percentage growth inhibition and cell viability were determined by the following equations: […]
(§4) The IC50 and Z-score were determined for each compound’s three biological replicates using the cell viability % values and GraphPad Prism 5. The mean IC50 of the biological replicates with standard deviation (SD) served as the final IC50 of each compound.

[2] = test system: L. donovani strain 9515 promastigotes; experiment: Antipromastigote assay (resazurin); type: cell-based; settings: L. donovani 9515, read-out: 9515 IC50 ± SD, Promastigote
Method: as §1, §2, §3, §4

[3] = test system: L. major strain IR‐173 promastigotes; experiment: Antipromastigote assay (resazurin); type: cell-based; settings: L. major IR‐173, read-out: Antileishmanial activity, IC50 ± SD, Promastigote
Method: as §1, §2, §3, §4

[4] = test system: L. donovani strain 1S amastigotes; experiment: Anti-amastigote assay (intramacrophage, THP-1 host, resazurin); type: cell-based; settings: L. donovani 1S, read-out: 1S IC50 ± SD, Amastigote
Method: (§5) The activities of synthesized compounds against the intramacrophage parasites of the three Leishmania strains were evaluated using a modified, resazurin‐based method (Jain et al., [2012]; Njanpa et al., [2021]). Suspension cultures of human acute monocytic leukemia (THP‐1) cells were maintained in RPMI‐1640 medium (Sigma Aldrich) supplemented with 10% FBS and 1% penicillin–streptomycin, at 37°C and 5% CO2 in a humidified atmosphere. Duplicate 96‐well plates (for respective anti‐amastigote and cytotoxicity assays) were seeded with 200 μl of a 2.5 × 10^5 cells/ml suspension treated with 25 ng/ml phorbol 12‐myristate 13‐acetate (PMA), followed by 48‐h incubation to promote differentiation into adherent macrophages.
(§6) For the anti‐amastigote assay, differentiated plates were carefully washed with PBS, followed by the addition of 200 μl of stationary phase promastigotes in RPMI 1640 medium with 2% FBS. An MOI of 30:1 was used for all three Leishmania strains. The parasite‐treated plates were incubated for 24 h at 32°C (L. major) or 37°C (L. donovani) and 5% CO2 to promote infection of the macrophages. […] Blanks were represented by growth medium without cells, as well as parasite‐free THP‐1 cells. The treated plates were incubated for 72 h.
(§7) After incubation, the plates were gently washed three times with PBS to remove any remaining extracellular parasites. The wells were then treated with 20 μl of 0.05% sodium dodecyl sulfate in PBS for 30 s to lyse the host macrophages. Lysis was terminated by adding 180 μl promastigote growth medium with 10% FBS. To initiate the resazurin assay, 10 μl of resazurin solution (0.025% in PBS) was added to all wells and the plates were incubated for 24 h at 32°C (L. major) or 37°C (L. donovani) and 5% CO2. Absorbance measurements, calculations, and IC50 determinations were performed as described for the antipromastigote assay (Supinfo S1).

[5] = test system: L. donovani strain 9515 amastigotes; experiment: as above; type: cell-based; settings: L. donovani 9515, read-out: 9515 IC50 ± SD, Amastigote
Method: as §5, §6, §7

[6] = test system: L. major strain IR‐173 amastigotes; experiment: as above; type: cell-based; settings: read-out: Antileishmanial activity, IC50 ± SD, Amastigote
Method: as §5, §6, §7

A375 melanoma cells = experiment: Anticancer assay (resazurin); type: cell-based, human; settings: n = 3, read-out: Anticancer activity, IC50 ± SD, A375
Method: (§8) The anticancer activities of synthesized compounds were evaluated using a resazurin‐based assay (Czekanska, [2011]). Accordingly, a screening method similar to that of the cytotoxicity assay was used to screen for anticancer activity, using human melanoma (A375), promyelocytic leukemia (Clone 15 HL‐60), lung cancer (A549), and breast cancer (MCF7) cells. The culture and assay methods are provided in the Supinfo S1.
(§9) The potential anticancer activities of synthesized compounds were screened using the resazurin assay. ^5 Breast adenocarcinoma (MCF7, ATCC® HTB-22™) and human melanoma (A375, ATCC® CRL-1619™) cells were cultured in Hyclone Dulbecco's modified Eagle’s medium with high glucose (Separations) supplemented with 10 % fetal bovine serum (FBS) (Thermofisher Scientific) and 1 % L-glutamine, penicillin-streptomycin and non-essential amino acids (Lonza). Human lung carcinoma (A549, ATCC®, CCL-185™) cells were cultured in Ham’s F12K medium supplemented with 10% FBS and 1% L-glutamine, penicillin-streptomycin and non-essential amino acids. Human promyelocytic leukemia (Clone 15 HL-60, ATCC® CRL-1946™) cells were cultured in RPMI-1640 medium (Sigma Aldrich) supplemented with 10% FBS and 1% penicillin-streptomycin. The cell lines were maintained in a humidified atmosphere at 37 °C and 5% CO2.
(§10) For the resazurin assay, 96 well plates were prepared with 100 μL of 100 000 cells/mL MCF7 cell suspension, 100 μL of 50 000 cells/mL A375 cell suspension, 100 μL of 25 000 cells/mL A549 cell suspension, or 50 μL of 50 000 cells/mL HL-60 cell suspension. The MCF7, A375 and A549 cell plates were incubated for 24 hours to allow adherence of the cells to the plate surface, after which the growth medium is replaced with 100 μL medium containing compounds. […] The cell lines were treated with: (i) parthenolide (Sigma Aldrich) (positive control); (ii) growth medium and solvent (negative control to compensate for possible solvent effects); (iii) growth medium and experimental compound solutions. […] Blanks contained growth medium without cells. The treated plates were incubated for 48 hours.
(§11) To initiate the resazurin assay, 50 μL of sterile-filtered resazurin sodium salt (Sigma Aldrich) solution (0.01 % in PBS) was added and the plates incubated for 2 hours (MCF7, A375 and A549 cells) or 24 hours (HL-60 cells). Absorbance was measured at 570 and 600 nm using the Thermofisher Scientific GO Multiscan plate reader. Data analysis was performed for each biological replicate using SkanIt 4.0 Research Edition software. Further data analysis, calculations and IC50 determinations were identical to that of the antileishmanial and cytotoxicity assays.
(§12) For the final IC50 of each compound, the mean IC50 of the biological replicates were calculated with standard deviation (SD).

[7] = test system: Clone 15 HL‐60 promyelocytic leukemia cells; experiment: Anticancer assay (resazurin); type: cell-based, human; settings: for IC50: read-out: Anticancer activity, IC50 ± SD, Clone 15 HL‐60
Method: as §8, §9, §10, §11, §12

[8] = Leishmania major, THP-1, L. major IR‐173

Molecule: CC(=O)Nc1ccc(S(=O)(=O)NN)cc1 [1 g, N-[4-(Hydrazinylsulfonyl)phenyl]acetamide]
- melting point: 175 to 178 °C

Molecule: NNS(=O)(=O)c1ccc(I)cc1 [1a, 4-Iodobenzenesulfonohydrazide]
- melting point: 160 to 162 °C

Molecule: NNS(=O)(=O)c1ccc([N+](=O)[O-])cc1 [1b, 4-Nitrobenzenesulfonohydrazide]
- melting point: 149 to 152 °C

Molecule: Cc1cc(C)c(S(=O)(=O)NN)c(C)c1 [1e, 2,4,6-Trimethylbenzenesulfonohydrazide]
- melting point: 110 to 113 °C

Molecule: NNS(=O)(=O)c1ccc(-c2ccccc2)cc1 [1h, (1,1'-Biphenyl)-4-sulfonohydrazide]
- melting point: 180 to 183 °C

Molecule: NNS(=O)(=O)C1(F)C=CC(c2ccccc2)=CC1 (stereo not shown) [1i, 4-Fluoro-(1,1'-biphenyl)-4-sulfonohydrazide]
- melting point: 164 to 169 °C

Molecule: NNS(=O)(=O)C1(Cl)C=CC(c2ccccc2)=CC1 (stereo not shown) [1j, 4-Chloro-(1,1'-biphenyl)-4-sulfonohydrazide]
- melting point: 150 to 153 °C

Molecule: COC1(S(=O)(=O)NN)C=CC(c2ccccc2)=CC1 (stereo not shown) [1k, 4-Methoxy-(1,1'-biphenyl)-4-sulfonohydrazide]
- melting point: 173 to 175 °C

Molecule: NNS(=O)(=O)c1cccc2c1OCCO2 [1l, 2,3-Dihydrobenzo[b][1,4]dioxine-5-sulfonohydrazide]
- melting point: 101 to 103 °C

Molecule: O=[N+]([O-])c1ccc(/C=N/NS(=O)(=O)c2ccc(I)cc2)o1 [2a, (E)-4-Iodo-N'-[(5-nitrofuran-2-yl)methylene]benzenesulfonohydrazide]
- IC50 ([1]; Leishmania donovani): > 10 µM
- IC50 ([2]; Leishmania donovani): > 10 µM
- IC50 ([3]; Leishmania major): > 10 µM
- IC50 ([4]; Leishmania donovani, THP-1): > 10 µM
- IC50 ([5]; Leishmania donovani, THP-1): > 10 µM
- IC50 [6, 8]: > 10 µM
- IC50 (A375 melanoma cells; Homo sapiens, A-375): > 10 µM
- IC50 ([7]; Homo sapiens, HL-60, n = 3): > 10 µM

Molecule: O=[N+]([O-])c1ccc(S(=O)(=O)N/N=C/c2ccc([N+](=O)[O-])o2)cc1 [2b, (E)-4-Nitro-N'-[(5-nitrofuran-2-yl)methylene]benzenesulfonohydrazide]
- IC50 ([1]; Leishmania donovani): > 10 µM
- IC50 ([2]; Leishmania donovani): > 10 µM
- IC50 ([3]; Leishmania major): > 10 µM
- IC50 ([4]; Leishmania donovani, THP-1): > 10 µM
- IC50 ([5]; Leishmania donovani, THP-1): > 10 µM
- IC50 [6, 8]: > 10 µM
- IC50 (A375 melanoma cells; Homo sapiens, A-375): > 10 µM
- IC50 ([7]; Homo sapiens, HL-60, n = 3): < 10 µM
- Preliminary screening, growth inhibition, Clone 15 HL‐60 ([7]; cutoff 50% growth inhibition at 10 μM): qualified
- IC50 ([7]; n = 3): 9.32 ± 0.9 µM

Molecule: CC(=O)Nc1ccc(S(=O)(=O)N/N=C/c2ccc([N+](=O)[O-])o2)cc1 [2g, (E)-N-{4-{ {2-[(5-nitrofuran-2-yl)methylene]hydrazinyl}sulfonyl}phenyl}acetamide]
- IC50 ([1]; Leishmania donovani): > 10 µM
- IC50 ([3]; Leishmania major): > 10 µM
- IC50 ([4]; Leishmania donovani, THP-1): > 10 µM
- IC50 [6, 8]: > 10 µM
- IC50 (A375 melanoma cells; Homo sapiens, A-375): > 10 µM

Molecule: O=C1OCCN1/N=C/c1ccc([N+](=O)[O-])o1 [FZD, furazolidone, reference compound]
- IC50 ([1]; Leishmania donovani): 0.32 µM
- IC50 ([2]; Leishmania donovani): 0.28 ± 0.04 µM
- IC50 ([3]; Leishmania major): 0.34 ± 0.03 µM
- IC50 ([4]; Leishmania donovani, THP-1): 1.94 µM
- IC50 [6, 8]: 2.8 ± 0.5 µM

Molecule: C=C1C(=O)O[C@H]2[C@H]1CC/C(C)=C/CC[C@@]1(C)O[C@@H]21 [PN, parthenolide, reference compound]
- IC50 (A375 melanoma cells; Homo sapiens, A-375): 5.13 ± 0.81 µM
- IC50 ([7]; Homo sapiens, HL-60, n = 3): 1.85 ± 0.15 µM

Molecule: (E)-4-Chloro-N'-[(5-nitrofuran-2-yl)methylene]-(1,1'-biphenyl)-4-sulfonohydrazide [2j]
- IC50 [1]: > 10 µM
- IC50 [2]: > 10 µM
- IC50 [3]: > 10 µM
- IC50 [4]: > 10 µM
- IC50 [5]: > 10 µM
- IC50 ([6]; L. major IR‐173): > 10 µM
- IC50 (A375 melanoma cells): > 10 µM
- IC50 ([7]; n = 3): > 10 µM

Molecule: (E)-4-Methoxy-N'-[(5-nitrofuran-2-yl)methylene]-(1,1'-biphenyl)-4-sulfonohydrazide [2k]
- IC50 [1]: > 10 µM
- IC50 [2]: > 10 µM
- IC50 [3]: > 10 µM
- IC50 [4]: > 10 µM
- IC50 [5]: > 10 µM
- IC50 ([6]; L. major IR‐173): > 10 µM
- IC50 (A375 melanoma cells): > 10 µM
- IC50 ([7]; n = 3): > 10 µM
